Reference: patent publication US12245590B2, “Method for controlling weeds” (SUMITOMO CHEMICAL COMPANY, LIMITED, priority 2019, dated 2025)

Assays:
[1] = system: Palmer amaranth, waterhemp, kochia, common ragweed or marestail; assay: Pot test, foliar spot treatment of weed patches before seeding the crop (Example 1); assay type: in vivo; settings: spot foliar treatment of 20% of pot area, 50 g/ha, 150 L/ha, 1% Agri-Dex; weeds 14 days old; soybean, corn or cotton seeded immediately after; 21 days in greenhouse
Experimental: (§1) The evaluation of the herbicidal efficacy is classified into 0 to 100, where the numeral “0” indicates no or little difference in the state of emergence or growth of weeds under test at the time of examination as compared with untreated weeds, and the numeral “100” indicates the complete death of weeds under test or the complete inhibition of emergence or growth of weeds under test.
A pot is filled with a soil, and then Palmer amaranth, waterhemp, kochia, common ragweed or marestail is seeded at a corner portion of the soil. The weeds are grown in a greenhouse for 14 days, and a section including vegetation patches of weeds (20% of the area on the pot) is subjected to foliar treatment with a spray liquid of saflufenacil (prepared by diluting a commercially available formulation of saflufenacil (aqueous suspension concentrate containing 29.74% of saflufenacil, Sharpen, manufactured by BASF) with water containing 1% (w/v) of adjuvant Agri-Dex) at 50 g/ha (as an application amount in a spot-treated section) and a liquid amount of 150 L/ha (as a liquid amount in a spot-treated section). Immediately thereafter, soybean (Genuity Roundup Ready 2 Xtend), corn (Genuity Roundup Ready 2), or cotton (Genuity Roundup Ready 2 Xtend) is seeded in a corner portion different from vegetation patches of weeds in the soil, and grown in the greenhouse for 21 days. This is defined as the invention plot.

[2] = system: Palmer amaranth, waterhemp, kochia, common ragweed or marestail; assay: Pot test, foliar spot treatment of weed patches with the crop growing (Example 2); assay type: in vivo; settings: spot foliar treatment of 20% of pot area, 50 g/ha, 150 L/ha, 1% Agri-Dex; weeds and soybean, corn or cotton 14 days old; 21 days in greenhouse
Experimental: as §1
A pot is filled with soil, and then Palmer amaranth, waterhemp, kochia, common ragweed, or marestail is seeded at a corner portion of the soil, and soybean (Genuity Roundup Ready 2 Xtend), corn (Genuity Roundup Ready 2), or cotton (Genuity Roundup Ready 2 Xtend) is seeded at another corner portion of the soil. The weeds and crops are grown in a greenhouse for 14 days, and a section including vegetation patches of weeds (20% of the area on the pot) is subjected to foliar treatment with a spray liquid of saflufenacil (prepared by diluting Sharpen with water containing 1% (w/v) of adjuvant Agri-Dex) at 50 g/ha (as an application amount in a spot-treated section) and a liquid amount of 150 L/ha (as a liquid amount in a spot-treated section). Thereafter, the weeds and crops are grown in the greenhouse for 21 days. This is defined as the invention plot.

Question: Which “weed control effect of the invention plot compared with comparative plots (no crop seeded; uniform blanket treatment)” value [1] does the source give for CC(C)N(C)S(=O)(=O)NC(=O)c1cc(-n2c(=O)cc(C(F)(F)F)n(C)c2=O)c(F)cc1Cl [saflufenacil] here?
Answer: excellent weed control effect

Question: And the “weed control effect of the invention plot compared with comparative plots (no crop seeded; uniform blanket treatment)” value [2]?
Answer: excellent weed control effect
